The text below walks through data of patent publication US7875727B2, “Benzimidazole vascular damaging agents” (Angiogene Pharmaceuticals Ltd., priority 1999, dated 2011).

The structures appear in SMILES notation.

In the first test the test system is tumour vasculature in CaNT tumour-bearing mice. Kind of test: Activity against tumour vasculature measured by fluorescent dye (Hoechst 33342 functional vascular volume). Format: in vivo. The note with it: 50 mg/kg i.p., 24 h after drug treatment, compared to control. From the text:
Activity Against Tumour Vasculature Measured by Fluorescent Dye.
One minute later, animals were killed and tumours excised and frozen; 10 μm sections were cut at 3 different levels and observed under UV illumination using an Olympus microscope equipped with epifluorescence. […] All estimates were based on counting a minimum of 100 fields from sections cut at the 3 different levels. Results are expressed as percentage reduction in vascular volume compared to control.
As for `COC(=O)Nc1nc2cc(Oc3ccc(OP(=O)(O)O)cc3)ccc2[nH]1` [Example 14, Methyl [5(6)-(4-phosphonooxyphenoxy)-1H-benzimidazol-2yl]carbamate], the “% Reduction in vascular volume” value came to 39%.
As to `COC(=O)Nc1nc2cc(Oc3ccc(O)cc3)ccc2[nH]1` [Example 19, Methyl [5(6)-(4-hydroxyphenoxy)-1H-benzimidazol-2yl]carbamate], the “% Reduction in vascular volume” value was found to be 88%.
As for `COC(=O)Nc1nc2cc(Sc3ccc(O)cc3)ccc2[nH]1` [Example 12, Methyl [5(6)-(4-hydroxyphenylthio)-1H-benzimidazol-2yl]carbamate], the “% Reduction in vascular volume” value is 51%.
Still for that read-out and setting: the figure for `COC(=O)Nc1nc2cc(C(=NO)c3ccc(O)cc3)ccc2[nH]1` [Example 15, Methyl [5(6)-(4-hydroxy-@-hydroxyiminobenzyl)-1H-benzimidazol-2yl]carbamate] is 61%; for `COC(=O)Nc1nc2cc(Oc3ccccc3O)ccc2[nH]1` [Example 20, Methyl [5(6)-(2-hydroxyphenoxy)-1H-benzimidazol-2yl]carbamate] it is 69%.
In the case of `COC(=O)Nc1nc2cc(Oc3ccc(N)cc3)ccc2[nH]1` [Example 17, Methyl [5(6)-(4-aminophenoxy)-1H-benzimidazol-2yl]carbamate], the “% Reduction in vascular volume” value is reported as 62%.
As to `COC(=O)Nc1nc2cc(Sc3ccc(OP(=O)(O)O)cc3)ccc2[nH]1` [Example 3, Methyl [5(6)-(4-phosphonooxyphenylthio)-IH-benzimidazol-2yl]carbamate], the “% Reduction in vascular volume” value was 22%.
As to `COC(=O)Nc1nc2cc(Sc3ccc(NC(=O)[C@H](C)N)cc3)ccc2[nH]1` [Example 5, Methyl [5(6)-(4-alanylaminophenylthio)-IH-benzimidazol-2yl]carbamate], the “% Reduction in vascular volume” value is 99%.
Take `COC(=O)Nc1nc2cc(Oc3ccc(NC(C)=O)cc3)ccc2[nH]1` [Example 16, Methyl [5(6)-(4-(acetylamino)phenoxy)-1H-benzimidazol-2yl]carbamate]: the “% Reduction in vascular volume” value is recorded as 56%.
For `COC(=O)Nc1nc2cc(Sc3ccc(N)cc3)ccc2[nH]1` [Example 4, Methyl [5(6)-(4-aminophenylthio)-1H-benzimidazol-2yl]carbamate], the “% Reduction in vascular volume” value was 53%.
Same read-out and setting: the figure for `COC(=O)Nc1nc2cc(Oc3cccc(O)c3)ccc2[nH]1` [Example 21, Methyl [5(6)-(3-hydroxyphenoxy)-1H-benzimxdazol-2yl]carbamate] is 74%; for `COC(=O)Nc1nc2cc(Oc3cccc(N)c3)ccc2[nH]1` [Example 18, Methyl [5(6)-(3-aminophenoxy)-1H-benzimidazol-2yl]carbamate] it is 47%.

Still in this test, the particulars now being: 100 mg/kg i.p., 6 h after drug treatment, compared to control.
With `CCCOc1ccc2[nH]c(NC(=O)OC)nc2c1` [Oxibendazole, reference compound], the “% Reduction in vascular volume” value was determined as 43%.

Still in this test, the particulars now being: 100 mg/kg i.p., 24 h after drug treatment, compared to control.
Regarding `COC(=O)Nc1nc2cc(C(=O)c3cccs3)ccc2[nH]1` [Nocodazole, reference compound], the “% Reduction in vascular volume” value was 23%.

Still in this test, the particulars now being: 500 mg/kg i.p., 6 h after drug treatment, compared to control.
For `CCCSc1ccc2[nH]c(NC(=O)OC)nc2c1` [Albendazole, reference compound], the “% Reduction in vascular volume” value is 51%.
Regarding `COC(=O)Nc1nc2cc(C(=O)c3ccc(OP(=O)(O)O)cc3)ccc2[nH]1` [Example 2, Methyl [5(6)-(4-phosphonooxybenzoyl)-1H-benzimidazol-2yl]carbamate], the “% Reduction in vascular volume” value is 80%.
For the molecule `COC(=O)Nc1nc2cc(C(=O)c3ccc(O)cc3)ccc2[nH]1` [Example 1, Methyl [5(6)-(4-hydroxybenzoyl)-IH-benzimidazol-2vl]carbamate], the “% Reduction in vascular volume” value stood at 81%.
Still for that read-out and setting: the figure for `COC(=O)Nc1nc2cc(Sc3ccccc3)ccc2[nH]1` [Fenbendazole, reference compound] is 44%; for `COC(=O)Nc1nc2cc(C(=O)c3ccccc3)ccc2[nH]1` [Mebendazole, reference compound] it is 56%.

The next test has as its system vasculature.
Assay: not given
The conditions noted are these: administered at the MTD; cited from earlier work.
`CC(=O)O[C@@]12CO[C@@H]1C[C@H](O)[C@@]1(C)C(=O)[C@H](O)C3=C(C)[C@@H](OC(=O)[C@H](O)[C@@H](NC(=O)OC(C)(C)C)c4ccccc4)C[C@@](O)([C@@H](OC(=O)c4ccccc4)[C@H]21)C3(C)C` [docetaxel]: the vascular-damaging activity entry is listed as “no vascular-damaging activity”.
